These results are taken from publication PMC9414302, “UPLC-ESI-QTRAP-MS/MS Analysis to Quantify Bioactive Compounds in Fennel (Foeniculum vulgare Mill.) Waste with Potential Anti-Inflammatory Activity” (Metabolites, 2022).

One assay has as its target T1, COX-1 (Ovis aries, UniProt P05979).
T1 construct: purchased Cayman Chemicals 700100
T1 sequence (P05979 25-600): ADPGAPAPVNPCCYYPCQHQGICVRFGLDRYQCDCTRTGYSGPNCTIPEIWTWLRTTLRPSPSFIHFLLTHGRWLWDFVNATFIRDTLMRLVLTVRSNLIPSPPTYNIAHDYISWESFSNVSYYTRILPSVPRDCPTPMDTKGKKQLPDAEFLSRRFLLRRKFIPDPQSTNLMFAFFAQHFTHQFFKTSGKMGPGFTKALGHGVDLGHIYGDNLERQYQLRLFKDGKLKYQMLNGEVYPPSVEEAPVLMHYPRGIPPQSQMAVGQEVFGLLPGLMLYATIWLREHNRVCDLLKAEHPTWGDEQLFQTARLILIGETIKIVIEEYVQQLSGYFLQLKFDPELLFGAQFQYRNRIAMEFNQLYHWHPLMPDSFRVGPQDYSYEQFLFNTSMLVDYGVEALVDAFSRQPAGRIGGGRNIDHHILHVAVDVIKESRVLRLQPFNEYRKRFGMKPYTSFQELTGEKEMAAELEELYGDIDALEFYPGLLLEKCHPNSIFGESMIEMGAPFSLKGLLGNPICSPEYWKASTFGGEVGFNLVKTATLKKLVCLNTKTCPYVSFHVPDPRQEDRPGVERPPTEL
Briefly: COX inhibitor screening fluorometric assay (COX-1). Type of assay: biochemical. As to the method: (§1) Anti-inflammatory activity was evaluated determining the capacity of some major metabolites of F. vulgare to inhibit the cyclooxygenase activity (COX). […] The assay uses the peroxidase component of COXs. The reaction between PGG2 and ADHP creates resorufin, a highly fluorescent compound. […] The inhibition of COXs is directly proportional to the reduction of resorufin fluorescence.
(§2) The analyses were made in triplicate and the results are expressed as the mean of the IC50 (µM) ± the standard deviation.

For the next assay, the target named is T2, COX-2 (Homo sapiens, UniProt P35354).
T2 construct: purchased Cayman Chemicals 700100
T2 sequence (P35354 18-604): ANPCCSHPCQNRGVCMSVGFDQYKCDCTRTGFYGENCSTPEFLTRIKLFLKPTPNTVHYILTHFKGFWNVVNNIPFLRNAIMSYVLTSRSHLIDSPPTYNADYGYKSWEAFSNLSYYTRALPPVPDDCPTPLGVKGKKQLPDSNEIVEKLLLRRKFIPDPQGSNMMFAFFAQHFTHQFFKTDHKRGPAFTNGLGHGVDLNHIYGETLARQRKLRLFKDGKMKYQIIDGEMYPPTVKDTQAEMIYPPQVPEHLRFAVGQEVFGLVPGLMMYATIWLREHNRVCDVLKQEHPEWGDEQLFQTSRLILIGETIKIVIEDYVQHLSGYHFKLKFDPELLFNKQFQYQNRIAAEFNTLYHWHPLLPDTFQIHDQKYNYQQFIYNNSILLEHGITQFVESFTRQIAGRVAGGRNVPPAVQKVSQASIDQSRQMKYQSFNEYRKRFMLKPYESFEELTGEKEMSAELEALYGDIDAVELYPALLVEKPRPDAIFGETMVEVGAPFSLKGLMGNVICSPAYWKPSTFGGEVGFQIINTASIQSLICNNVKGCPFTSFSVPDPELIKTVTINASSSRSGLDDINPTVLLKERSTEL
The assay is described as follows: COX inhibitor screening fluorometric assay (COX-2). Type of assay: biochemical. As to the method: as §1, §2

The mark [1] stands for this setting: fluorometric assay (resorufin, ex 535 nm / em 590 nm), mean of three determinations ± SD, metabolites tested at 25, 50, 100 and 150 µM, SC-560 at 2, 4, 8 and 10 nM.

What is called IC50 is the concentration that gives 50% inhibition.

Molecules are shown by their SMILES. Read-outs that look alike come from different tables or passages of the source.

`O=C(/C=C/c1ccc(O)c(O)c1)OC1C(O)CC(OC(=O)/C=C/c2ccc(O)c(O)c2)(C(=O)O)CC1O` (stereo not drawn) [Dicaffeoylquinic acid, dicaffeoylquinic acid]: the IC50 against COX-1 turned out to be 85.6 ± 10.9 µM; against COX-2 it was 14.8 ± 2.39 µM.

Turning to `COc1cc(-c2oc3cc(O)cc(O)c3c(=O)c2OC2OC(C(=O)O)C(O)C(O)C2O)ccc1O` (stereo not drawn) [Isorhamnetin glucuronide, isorhamnetin glucuronide], the 50% inhibitory concentration (IC50) on COX-1 (setting [1]) worked out at 94.7 ± 1.22 µM.

Consider `O=C(O)C1OC(Oc2c(-c3ccc(O)cc3)oc3cc(O)cc(O)c3c2=O)C(O)C(O)C1O` (stereo not drawn) [Kaempferol glucuronide, kaempferol glucuronide], for which the IC50 on COX-1 (setting [1]) was determined as 228 ± 16.8 µM.

At COX-1, `O=c1c(O[C@@H]2O[C@H](CO)[C@@H](O)[C@H](O)[C@H]2O)c(-c2ccc(O)c(O)c2)oc2cc(O)cc(O)c12` [Quercetin glucoside, quercetin glucoside] displayed an IC50 of 103 ± 8.66 µM.

Take `O=C(O)[C@H]1O[C@@H](Oc2c(-c3ccc(O)c(O)c3)oc3cc(O)cc(O)c3c2=O)[C@H](O)[C@@H](O)[C@@H]1O` [Quercetin glucuronide, quercetin glucuronide]: the concentration for half-maximal inhibition (IC50) on COX-1 (setting [1]) came to 571 ± 40 µM.
